According to patent US11390661B2, “HCMV entry inhibitors” (priority 2016, dated 2022):

How the values were obtained:
HCMV particles = test: Binding of chimeric receptors (Fc-fusion proteins) to HCMV particles; design: species or system Human cytomegalovirus
Description: To assess the binding of Fc-Proteins to virus particles, HFFs were seeded at a density of 40,000 cells per well on IBIDI plates 1 day prior to infection. Virus preparations were pre-incubated with Fc-fusion proteins at a final concentration of 500 ng/ml for 2 h at 37° C. The virus/Fc-protein mixtures were incubated with the cells for 1.5 h on ice. Before fixation with 80% acetone, the cells were washed once with MEM. For staining of viral particles mouse hybridoma recognizing the abundant viral protein pp150 (generously provided by W. Britt, Sanchez 2000) used.
The inventors tested this by staining of adsorbed virus particles with the Fc-fusion proteins. […] Virus particles were stained for the capsid protein pp150 and bound Fc-fusion proteins.
The inventors analyzed the mode of inhibition by PDGFR-alpha-Fc. For this, the binding of different concentrations of the fusion protein was quantified by assessing the particle intensities after staining with anti-human antibody (FIG. 5). […] (FIGS. 4 and 5).

UL74stop virus = test: Inhibition assay with UL74stop virus; assay type: cell-based, Human cytomegalovirus
Description: To further investigate this, inhibition assays were performed with the UL74stop virus (FIG. 8B). As deletion of pUL74 from the virus has a severe effect on infectivity, virions had to be 50 fold concentrated for the experiment, whereas wild type virus had to be diluted to achieve similar infection rates.
FIG. 8: pUL74 is the viral interaction partner of PDGFR-alpha-Fc. Virus preparations of strain TB40-BAC4 or TB40-BAC4UL74stop were pretreated for 2 h with PDGFR-alpha-Fc. A: HFFs were fixed after 90 min of incubation with the virus-inhibitor mixture followed by staining for the viral structural protein pUL32 (red) and for Fc (green). B: Wild type or pUL74stop virus preparations were pre-incubated for 2 h with PDGFR-alpha-Fc before infection of HFFs or HECs was allowed. Wild type or UL74stop virus preparations were diluted or concentrated respectively to obtain similar infection rates. Infection rates were determined by calculation of the number of immediate early positive nuclei over total DAPI stained nuclei per image. Out of three independent experiments one is shown.

PDGFR-alpha-Fc: recombinant Fc-fusion protein of the PDGFR-alpha extracellular domain, obtained from R&D (6765-PR-050)
EC50 of binding to HCMV particles (HCMV particles; particle intensities after anti-human antibody staining): 0.108 µg/mL
binding of Fc-fusion protein to virus particles (anti-human antibody staining) (HCMV particles; particles pre-incubated with Fc-fusion protein, attached to cells on ice): binds to the virus
infectivity of the UL74stop virus with increasing doses (UL74stop virus): did not significantly change
